Experimental findings from ChEMBL document CHEMBL1156794, “Synthesis and antimicrobial evaluation of amphiphilic neamine derivatives” (J Med Chem, 2010) are described below.

The subject of assay [1] is Acinetobacter lwoffii. Put plainly: microbe, parasite or virus in culture. The following applies: ATCC 17925, 24 h.
Description: Antibacterial activity against Acinetobacter lwoffii ATCC 17925 after 24 hrs by geometric microdilution method
Assay [2] relates to Pseudomonas aeruginosa. Put plainly: Antibacterial activity against TriABC expressing MexAB, MexCD, MexEF, MexXY deleted Pseudomonas aeruginosa PA405 after 24 hrs by geometric microdilution method. Type of assay: functional. The following applies: PA405, 24 h.
A further assay has as its target Nucleic Acid. Put plainly: Binding affinity to bacterial rRNA A site at 200 uM by isothermal titration calorimetry. It counts as nucleic-acid assay. On the technique in general: ITC needs no label: the signal is the heat of the interaction.
The subject of assay [3] is Pseudomonas aeruginosa. In words: Antibacterial activity against MexXY expressing Pseudomonas aeruginosa PA22 after 24 hrs by geometric microdilution method. Type of assay: functional. The note with it: PA22, 24 h. (In general: Broth dilution looks for growth in wells or tubes with falling amounts of substance.)
The test system of assay [4] is Pseudomonas aeruginosa. In words: Antibacterial activity against Pseudomonas aeruginosa ATCC 27853 after 24 hrs by geometric microdilution method. It counts as functional. The following applies: ATCC 27853, 24 h.
The test system of assay [5] is Pseudomonas aeruginosa. Put plainly: Inhibition of protein synthesis in Pseudomonas aeruginosa ATCC 27853 assessed as decrease in incorporation of L-[4,5-3H]leucine at MIC by liquid scintillation counter relative to control. Type of assay: functional.
Assay [6] has as its system Pseudomonas aeruginosa. Put plainly: Antibacterial activity against MexEF expressing Pseudomonas aeruginosa PA03 after 24 hrs by geometric microdilution method. It counts as functional. The following applies: PA03, 24 h.
The next assay concerns Klebsiella pneumoniae. In words: Antibacterial activity against Klebsiella pneumoniae ATCC 700603 after 24 hrs by geometric microdilution method. It counts as functional. The note with it: ATCC 700603, 24 h.
Assay [7] relates to Escherichia coli. Put plainly: Antibacterial activity against AAC6'-2b expressing Escherichia coli PAZ505H8101 after 24 hrs by geometric microdilution method. It counts as functional. The following applies: PAZ505H8101, 24 h.
Assay [8] concerns Acinetobacter lwoffii. In words: Antibacterial activity against […] expressing Acinetobacter lwoffii AI.88-483 after 24 hrs by geometric microdilution method. Type of assay: functional. The following applies: AI.88-483, 24 h.
Assay [9] concerns Pseudomonas aeruginosa. In words: Antibacterial activity against MexAB, MexCD, MexEF, MexXY, TriABC deleted Pseudomonas aeruginosa PA406 after 24 hrs by geometric microdilution method. The following applies: PA406, 24 h. It counts as functional.
The subject of assay [10] is Pseudomonas aeruginosa. Put plainly: Inhibition of protein synthesis in Pseudomonas aeruginosa ATCC 27853 assessed as decrease in incorporation of L-[4,5-3H]leucine at 10 times MIC by liquid scintillation counter relative to control. Type of assay: functional.
The subject of assay [11] is Pseudomonas aeruginosa. Put plainly: Antibacterial activity against AAC6'-2a expressing Pseudomonas aeruginosa F03 after 24 hrs by geometric microdilution method. The following applies: F03, 24 h. It counts as functional.
Assay [12] deals with Escherichia coli. In words: microbe, parasite or virus in culture. The following applies: ATCC 25922, 24 h.
Description: Antibacterial activity against Escherichia coli ATCC 25922 after 24 hrs by geometric microdilution method
Assay [13] has as its system Pseudomonas aeruginosa. In words: Antibacterial activity against MexXY expressing Pseudomonas aeruginosa PT629 after 24 hrs by geometric microdilution method. Type of assay: functional. The note with it: PT629, 24 h.
In assay [14] the test system is Staphylococcus aureus. Put plainly: Antibacterial activity against aminoglycoside-4'-O-phosphoryltransferase expressing Staphylococcus aureus after 24 hrs by geometric microdilution method. Type of assay: functional.
Assay [15] deals with Staphylococcus aureus. Put plainly: Antibacterial activity against methicillin-resistant Staphylococcus aureus ATCC 33592 clinical isolate after 24 hrs by geometric microdilution method. Type of assay: functional. The note with it: ATCC 33592, 24 h.
Assay [16] relates to Staphylococcus aureus. Put plainly: Antibacterial activity against Staphylococcus aureus ATCC 25923 after 24 hrs by geometric microdilution method. The note with it: ATCC 25923, 24 h. It counts as functional.
For assay [17], the system named is Pseudomonas aeruginosa. Put plainly: Antibacterial activity against MexAB expressing Pseudomonas aeruginosa PA21 after 24 hrs by geometric microdilution method. Type of assay: functional. The note with it: PA21, 24 h.
The test system of assay [18] is Escherichia coli. In words: Antibacterial activity against ANT2'-2a expressing Escherichia coli L58058.1 after 24 hrs by geometric microdilution method. Type of assay: functional. The following applies: L58058.1, 24 h.
Assay [19] relates to Staphylococcus aureus. In words: Antibacterial activity against aminoglycoside-6'-N-acetyltransferase/2''-O-phosphoryltransferase expressing Staphylococcus aureus after 24 hrs by geometric microdilution method. It counts as functional.
The test system of assay [20] is Staphylococcus aureus. In words: Antibacterial activity against vancomycin-resistant Staphylococcus aureus VRS-2 after 24 hrs by geometric microdilution method. It counts as functional. The note with it: VRS-2, 24 h.
In assay [21] the test system is Staphylococcus aureus. In words: Antibacterial activity against NorA pump expressing Staphylococcus aureus after 24 hrs by geometric microdilution method. It counts as functional.
The test system of assay [22] is Pseudomonas aeruginosa. In words: Antibacterial activity against MexCD expressing Pseudomonas aeruginosa PA01 after 24 hrs by geometric microdilution method. It counts as functional. The note with it: PA01, 24 h.
For assay [23], the system named is Staphylococcus aureus. In words: Antibacterial activity against aminoglycoside-3'-O-phosphoryltransferase expressing Staphylococcus aureus after 24 hrs by geometric microdilution method. It counts as functional.
Assay [24] relates to Staphylococcus aureus. Put plainly: Antibacterial activity against MsrA pump expressing Staphylococcus aureus after 24 hrs by geometric microdilution method. Type of assay: functional.
Assay [25] concerns Pseudomonas aeruginosa. In words: Antibacterial activity against Pseudomonas aeruginosa PAO1 after 24 hrs by geometric microdilution method. It counts as functional. The following applies: PAO1, 24 h.
Assay [26] deals with Escherichia coli. Put plainly: Antibacterial activity against R-methylase expressing Escherichia coli 06AB003 after 24 hrs by geometric microdilution method. It counts as functional. The note with it: 06AB003, 24 h.
For another assay, the system named is Klebsiella aerogenes. Put plainly: Antibacterial activity against R-methylase expressing Enterobacter aerogenes 06AB008 after 24 hrs by geometric microdilution method. The following applies: 06AB008, 24 h. It counts as functional.
A further assay concerns Citrobacter amalonaticus. In words: Antibacterial activity against R-methylase expressing Citrobacter amalonaticus 06AB0010 after 24 hrs by geometric microdilution method. Type of assay: functional. The note with it: 06AB0010, 24 h.
The subject of assay [27] is Pseudomonas aeruginosa. In words: Inhibition of protein synthesis in Pseudomonas aeruginosa ATCC 27853 assessed as decrease in incorporation of L-[4,5-3H]leucine at 5 times MIC by liquid scintillation counter relative to control. Type of assay: functional.

The structures appear in SMILES notation. Converted amounts (≈) assume the structure as drawn.

In the case of `NC[C@@H]1O[C@H](O[C@H]2[C@@H](O)[C@H](O[C@@H]3[C@@H](O)[C@H](N)C[C@H](N)[C@H]3O[C@H]3O[C@H](CN)[C@@H](O)[C@H](O)[C@H]3N)O[C@@H]2CO)[C@H](N)[C@@H](O)[C@@H]1O` [FRAMYCETIN], the MIC amounted to 0.5 µg/mL (≈ 0.813 µM) against Acinetobacter lwoffii [1]; 2 µg/mL (≈ 3.25 µM) against Pseudomonas aeruginosa [2]; 32 µg/mL (≈ 52.1 µM) in the assay on Pseudomonas aeruginosa [3]; 64 µg/mL (≈ 104 µM) in the assay on Pseudomonas aeruginosa [4]; 4 µg/mL (≈ 6.51 µM) against Pseudomonas aeruginosa [6]; 16 µg/mL (≈ 26 µM) against Klebsiella pneumoniae. Moreover, the MIC with Escherichia coli [7] was 4 µg/mL (≈ 6.51 µM); against Acinetobacter lwoffii [8], > 128 µg/mL; against Pseudomonas aeruginosa [9] it was 4 µg/mL (≈ 6.51 µM); against Pseudomonas aeruginosa [11], 128 µg/mL (≈ 208 µM); in the assay with Escherichia coli [12], 2 µg/mL (≈ 3.25 µM); with Pseudomonas aeruginosa [13] it was 32 µg/mL (≈ 52.1 µM). Also, the MIC was 32 µg/mL (≈ 52.1 µM) against Staphylococcus aureus [14]; > 128 µg/mL against Staphylococcus aureus [15]; 2 µg/mL (≈ 3.25 µM) against Staphylococcus aureus [16]; 4 µg/mL (≈ 6.51 µM) in the assay with Pseudomonas aeruginosa [17]; 32 µg/mL (≈ 52.1 µM) against Escherichia coli [18]; 1 µg/mL (≈ 1.63 µM) against Staphylococcus aureus [19]. The MIC against Staphylococcus aureus [20] was 128 µg/mL (≈ 208 µM); in the assay with Staphylococcus aureus [21], 1 µg/mL (≈ 1.63 µM); against Pseudomonas aeruginosa [22], 8 µg/mL (≈ 13 µM); in the assay with Staphylococcus aureus [23], > 128 µg/mL; against Staphylococcus aureus [24] it was 2 µg/mL (≈ 3.25 µM); with Pseudomonas aeruginosa [25], 4 µg/mL (≈ 6.51 µM). On Nucleic Acid, the affinity, expressed as Kd, was 1.55 µM. Further, the “inhibition (INH)” value in the assay on Pseudomonas aeruginosa [5] and in the assay on Pseudomonas aeruginosa [10] was 40% throughout.

For `NC[C@H]1O[C@H](O[C@H]2[C@H](O)[C@@H](OCc3ccc4ccccc4c3)[C@H](N)C[C@@H]2N)[C@H](N)[C@@H](OCc2ccc3ccccc3c2)[C@@H]1OCc1ccc2ccccc2c1`, the MIC against Pseudomonas aeruginosa [2] came to 4 µg/mL (≈ 5.38 µM); in the assay with Pseudomonas aeruginosa [3] it was 4 µg/mL (≈ 5.38 µM); in the assay with Pseudomonas aeruginosa [4], 8 µg/mL (≈ 10.8 µM); in the assay on Pseudomonas aeruginosa [6] it was 4 µg/mL (≈ 5.38 µM); against Klebsiella pneumoniae it was 16 µg/mL (≈ 21.5 µM); in the assay on Escherichia coli [7], 4 µg/mL (≈ 5.38 µM). Further, the MIC worked out at 32 µg/mL (≈ 43.1 µM) against Acinetobacter lwoffii [8]; 4 µg/mL (≈ 5.38 µM) in the assay on Pseudomonas aeruginosa [9]; 8 µg/mL (≈ 10.8 µM) in the assay on Pseudomonas aeruginosa [11]; 4 µg/mL (≈ 5.38 µM) with Pseudomonas aeruginosa [13]; 4 µg/mL (≈ 5.38 µM) against Escherichia coli [26]; 4 µg/mL (≈ 5.38 µM) against Pseudomonas aeruginosa [17]. In addition, the MIC in the assay on Escherichia coli [18] was determined as 4 µg/mL (≈ 5.38 µM); in the assay on Klebsiella aerogenes it was 4 µg/mL (≈ 5.38 µM); against Pseudomonas aeruginosa [22], 4 µg/mL (≈ 5.38 µM); against Citrobacter amalonaticus it was 4 µg/mL (≈ 5.38 µM); in the assay on Pseudomonas aeruginosa [25], 8 µg/mL (≈ 10.8 µM). Also, the Kd (in general, the concentration at which binding is half-saturated) on Nucleic Acid was found to be 10 µM. For the same compound, the “inhibition (INH)” value in the assay on Pseudomonas aeruginosa [10] is 60%.

As to `C[C@H]1[C@H](NC(=O)/C(=N\OC(C)(C)C(=O)O)c2csc(N)n2)C(=O)N1S(=O)(=O)O` [AZTREONAM], the “inhibition (INH)” value worked out at 95% in the assay on Pseudomonas aeruginosa [10] and 30% with Pseudomonas aeruginosa [27].

On to `NCC[C@H](O)C(=O)N[C@@H]1C[C@H](N)[C@@H](O[C@H]2O[C@H](CN)[C@@H](O)[C@H](O)[C@H]2O)[C@H](O)[C@H]1O[C@H]1O[C@H](CO)[C@@H](O)[C@H](N)[C@H]1O` [AMIKACIN], for which the MIC was determined as 0.5 µg/mL (≈ 0.854 µM) in the assay with Acinetobacter lwoffii [1]; 0.5 µg/mL (≈ 0.854 µM) against Pseudomonas aeruginosa [2]; 8 µg/mL (≈ 13.7 µM) with Pseudomonas aeruginosa [3]; 2 µg/mL (≈ 3.42 µM) against Pseudomonas aeruginosa [4]; 2 µg/mL (≈ 3.42 µM) against Pseudomonas aeruginosa [6]; 0.5 µg/mL (≈ 0.854 µM) with Klebsiella pneumoniae. Further, the MIC against Escherichia coli [7] is 32 µg/mL (≈ 54.6 µM); in the assay with Acinetobacter lwoffii [8], > 128 µg/mL; against Pseudomonas aeruginosa [9], 1 µg/mL (≈ 1.71 µM); in the assay with Pseudomonas aeruginosa [11], 4 µg/mL (≈ 6.83 µM); with Escherichia coli [12], 4 µg/mL (≈ 6.83 µM); in the assay on Pseudomonas aeruginosa [13], 8 µg/mL (≈ 13.7 µM). Also, the MIC in the assay with Escherichia coli [26] was > 128 µg/mL; against Pseudomonas aeruginosa [17] it was 2 µg/mL (≈ 3.42 µM); in the assay on Escherichia coli [18], 2 µg/mL (≈ 3.42 µM); with Klebsiella aerogenes, > 128 µg/mL; in the assay with Pseudomonas aeruginosa [22], 2 µg/mL (≈ 3.42 µM); in the assay with Citrobacter amalonaticus it was > 128 µg/mL. Further, the MIC against Pseudomonas aeruginosa [25] worked out at 2 µg/mL (≈ 3.42 µM).
